Data reported in patent US6465654B2, “Process for preparing 1-substituted, 2-substituted 1H-imidazo[4, 5-c]quinoline-4-amines” (3M Innovative Properties Company, priority 1991, dated 2002).

Experiments:
[1] = test system: interferon-α; assay: Interferon-α induction in human cells, PBM; type: cell-based; settings: 24 hours
[2] = test system: interferon; assay: Interferon induction in mice; type: in vivo; settings: mouse serum
Outline: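 Interferon titres expressed as α/β reference units/mL relative to mouse MU-1-IF standard, "<" denoting undetectable. Pooled serum came from mouse groups bled at 1, 2 or 4 h, frozen at −70° C, analysed like human-cell samples.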

melting point: 125 to 140 °C
SMILES: CC(C)Cn1c(C(O)c2ccccc2)nc2c(N)nc3ccccc3c21 (stereo not drawn) [Example 48, 4-Amino-1-(2-methylpropyl)-α-phenyl-1H-imidazo[4,5-c]quinoline-2-methanol]
Interferon-α induction ([1]; dose concentration 0.10 μg/mL): 3100 α Reference Units/mL
Interferon-α induction ([1]; dose concentration 0.50 μg/mL): 840 α Reference Units/mL
Interferon-α induction ([1]; dose concentration 1.0 μg/mL): 330 α Reference Units/mL
Interferon-α induction ([1]; dose concentration 5.0 μg/mL): 1300 α Reference Units/mL
Interferon induction in mice ([2]; oral 0.3 mg/kg, 1 hr): <260 Reference Units/mL
Interferon induction in mice ([2]; oral 0.3 mg/kg, 2 hr): <260 Reference Units/mL
Interferon induction in mice ([2]; oral 0.3 mg/kg, 4 hr): <260 Reference Units/mL
Interferon induction in mice ([2]; oral 1 mg/kg, 1 hr): 790 Reference Units/mL
Interferon induction in mice ([2]; oral 1 mg/kg, 2 hr): 940 Reference Units/mL
Interferon induction in mice ([2]; oral 1 mg/kg, 4 hr): <260 Reference Units/mL
Interferon induction in mice ([2]; oral 3 mg/kg, 1 hr): 1600 Reference Units/mL
Interferon induction in mice ([2]; oral 3 mg/kg, 2 hr): 1600 Reference Units/mL
Interferon induction in mice ([2]; oral 3 mg/kg, 4 hr): ˜510 Reference Units/mL
Interferon induction in mice ([2]; oral 10 mg/kg, 1 hr): 2000 Reference Units/mL
Interferon induction in mice ([2]; oral 10 mg/kg, 2 hr): 2000 Reference Units/mL
Interferon induction in mice ([2]; oral 10 mg/kg, 4 hr): ˜540 Reference Units/mL
